Measurements published in patent US10851082B2, “Substituted aromatic n-heterocyclic compounds as inhibitors of mitogen-activated protein kinase interacting kinase 1 (MNK1) and 2 (MNK2)” (Northwestern University, priority 2015, dated 2020).
Like-named read-outs stand apart in the source and are kept apart here.

Tests used:
Mnk1 = Mnk1 (Homo sapiens (Human), UniProt Q9BUB5); experiment: Mnk1 kinase inhibition, ADP-Glo ADP monitoring assay; format: biochemical
Procedure: (§1) The synthesized compounds then were tested for inhibition of the kinase activity (IC50) of Mnk1 and/or Mnk2 using the ADP monitoring assay for kinases described in Zegzouti, H.; Zdanovskaia, M.; Hsiao, K.; Goueli, S. A., ADP-Glo: A Bioluminescent and homogeneous ADP monitoring assay for kinases.

Mnk2 = Mnk2 (Homo sapiens (Human), UniProt Q9HBH9); experiment: Mnk2 kinase inhibition, ADP-Glo ADP monitoring assay; format: biochemical
Mnk2, sequence (Q9HBH9 whole entry): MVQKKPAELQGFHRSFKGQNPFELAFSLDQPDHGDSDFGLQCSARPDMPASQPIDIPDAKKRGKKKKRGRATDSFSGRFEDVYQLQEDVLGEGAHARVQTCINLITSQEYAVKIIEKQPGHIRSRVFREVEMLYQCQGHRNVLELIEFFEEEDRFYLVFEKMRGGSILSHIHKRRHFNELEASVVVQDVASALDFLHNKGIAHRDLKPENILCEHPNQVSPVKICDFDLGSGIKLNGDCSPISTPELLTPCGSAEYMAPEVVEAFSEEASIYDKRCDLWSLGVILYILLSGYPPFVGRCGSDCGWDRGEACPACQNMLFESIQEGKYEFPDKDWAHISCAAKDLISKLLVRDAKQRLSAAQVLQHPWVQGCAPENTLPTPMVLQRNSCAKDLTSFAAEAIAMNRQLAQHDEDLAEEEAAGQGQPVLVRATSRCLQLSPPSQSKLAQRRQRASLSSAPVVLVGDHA
Procedure: as §1

[1] = ADP-Glo kinase assay, read-out: Mnk2 IC50
[2] = unit inferred, read-out: Mnk1 IC50
[3] = ADP-Glo kinase assay, unit inferred, read-out: Mnk2 IC50
[4] = read-out: Mnk1 inhibition IC50 (+,++,+++)
[5] = ADP-Glo kinase assay, read-out: Mnk2 inhibition IC50 (+,++,+++)

Mnk1, sequence (Q9BUB5 whole entry): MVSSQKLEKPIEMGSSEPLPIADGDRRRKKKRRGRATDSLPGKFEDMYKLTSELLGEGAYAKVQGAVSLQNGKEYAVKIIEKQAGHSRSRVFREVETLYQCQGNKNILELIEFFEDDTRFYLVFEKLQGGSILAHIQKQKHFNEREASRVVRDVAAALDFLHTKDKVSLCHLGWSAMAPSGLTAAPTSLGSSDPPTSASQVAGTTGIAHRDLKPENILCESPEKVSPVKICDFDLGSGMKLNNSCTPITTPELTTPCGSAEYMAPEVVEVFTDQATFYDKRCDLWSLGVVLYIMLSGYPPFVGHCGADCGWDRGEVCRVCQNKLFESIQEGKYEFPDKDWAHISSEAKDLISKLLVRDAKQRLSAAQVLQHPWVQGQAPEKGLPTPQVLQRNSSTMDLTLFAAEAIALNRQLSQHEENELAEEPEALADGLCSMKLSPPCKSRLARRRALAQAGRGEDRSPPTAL

SMILES	IC50 (Mnk1; read-out: Mnk1 IC50) [nM]	IC50 (Mnk2; [1]) [nM]	IC50 (Mnk1; [2]) [nM]	IC50 (Mnk2; [3]) [nM]	also measured
COCCNc1nccc(-n2cnc3ccccc32)n1 [NUCC-0176342]	1600	200			
O=C1CCCN1CCCNc1nccc(-n2cnc3ccccc32)n1 [NUCC-0176344]	7200	780			
O=C1CCCN1CCCNc1ccnc(-n2cnc3ccccc32)n1 [NUCC-0176345]	10000	2600			
c1ccc2c(c1)cnn2-c1ccnc(NCCc2ccncc2)n1 [NUCC-0176346]	5400	4700			
c1ccc2c(c1)cnn2-c1nccc(NCCc2ccncc2)n1 [NUCC-0176347]	8100	5600			
CC(O)CNc1ccnc(-n2cnc3ccccc32)n1 (centres unmarked) [NUCC-0176348]	710	130			
Nc1ccnc(-n2cnc3ccccc32)n1 [NUCC-0176349]	4100	1400			
O=c1c2ccccc2nnn1-c1ccnc(NCCc2ccncc2)n1 [NUCC-0176350]					Mnk1 IC50 (Mnk1): no activity; Mnk2 IC50 (Mnk2; ADP-Glo kinase assay): no activity
O=C(Nc1ccccc1)Nc1nccc(-n2cnc3ccccc32)n1 [NUCC-0176351]					Mnk1 IC50 (Mnk1): no activity; Mnk2 IC50 (Mnk2; ADP-Glo kinase assay): no activity
OCCNc1nccc(-n2cnc3ccccc32)n1 [NUCC-0176352]	650	170			
O=c1oc2ccccc2n1-c1ccnc(NCCc2ccncc2)n1 [NUCC-0176353]	9500	6800			
S=c1oc2ccccc2n1-c1ccnc(NCCc2ccncc2)n1 [NUCC-0176354]	10000	4900			
Clc1cnc(NCCc2c[nH]c3ccccc23)nc1-n1cnc2ccccc21 [NUCC-0176355]	13000	2400			
COC(=O)CNc1ncc(Cl)c(-n2cnc3ccccc32)n1 [NUCC-0176356]	11000	1400			
Clc1cnc(NCCc2cccnc2)nc1-n1cnc2ccccc21 [NUCC-0176357]	2300	250			
OCCNc1ncc(Cl)c(-n2cnc3ccccc32)n1 [NUCC-0176358]	450	130			
NC(=O)CNc1ncc(Cl)c(-n2cnc3ccccc32)n1 [NUCC-0176359]	1500	320			
Clc1cnc(NCc2cccnc2)nc1-n1cnc2ccccc21 [NUCC-0176360]	4500	1000			
O=C(O)CNc1ncc(Cl)c(-n2cnc3ccccc32)n1 [NUCC-0176361]					Mnk1 IC50 (Mnk1): no activity; Mnk2 IC50 (Mnk2; ADP-Glo kinase assay): no activity
O=C(Nc1cc(C(F)(F)F)cc(C(F)(F)F)c1)Nc1nccc(-n2cnc3ccccc32)n1 [NUCC-0176362]					Mnk1 IC50 (Mnk1): no activity; Mnk2 IC50 (Mnk2; ADP-Glo kinase assay): no activity
FC(F)(F)c1cc(NC(=S)Nc2nccc(-n3cnc4ccccc43)n2)cc(C(F)(F)F)c1 [NUCC-0176363]					Mnk1 IC50 (Mnk1): no activity; Mnk2 IC50 (Mnk2; ADP-Glo kinase assay): no activity

SMILES	IC50 (Mnk1; read-out: Mnk1 IC50) [nM]	IC50 (Mnk2; [1]) [nM]	IC50 (Mnk1; [2]) [nM]	IC50 (Mnk2; [3]) [nM]	also measured
O=[N+]([O-])c1ccc(NCCNc2nccc(-n3cnc4ccccc43)n2)nc1 [NUCC-0176365]	7400	2100			
O=[N+]([O-])c1ccc(NCCNc2ccnc(-n3cnc4ccccc43)n2)nc1 [NUCC-0176366]	8500	2500			
O=C1NCCCCC1Nc1nccc(-n2cnc3ccccc32)n1 (centres unmarked) [NUCC-0176367]	2600	500			
O=C1NCCCCC1Nc1ccnc(-n2cnc3ccccc32)n1 (centres unmarked) [NUCC-0176368]	11000	5200			
OC1Cc2ccccc2C1Nc1nccc(-n2cnc3ccccc32)n1 (centres unmarked) [NUCC-0176369]					Mnk1 IC50 (Mnk1): no activity; Mnk2 IC50 (Mnk2; ADP-Glo kinase assay): no activity
CCNC(=O)Nc1nccc(-n2cnc3ccccc32)n1 [NUCC-0196222]			> 10000	2200	
Nc1cc(-n2cnc3ccccc32)nc(NCc2cccnc2)n1 [NUCC-0196223]			> 10000	1800	
Brc1cnc(NCCc2ccncc2)nc1-n1cnc2ccccc21 [NUCC-0196228]			550	69	
COC(=O)c1cc(-n2cnc3ccccc32)nc(NCCc2ccncc2)n1 [NUCC-0196230]			> 10000	> 10000	
Nc1cnc(NCCc2ccncc2)nc1-n1cnc2ccccc21 [NUCC-0196231]			> 10000	> 10000	
O=C(NC1CC1)c1cc(-n2cnc3ccccc32)nc(NCCc2ccncc2)n1 [NUCC-0196234]			> 10000	5400	
c1cc(NCCc2ccncc2)nc(-n2cnc3ccccc32)c1 [NUCC-0196235]			100	10	
O=C(O)c1cc(-n2cnc3ccccc32)nc(NCCc2ccncc2)n1 [NUCC-0196239]			> 10000	6900	
N#Cc1cnc(NCCc2ccncc2)nc1-n1cncn1 [NUCC-0196250]			> 10000	> 10000	
c1ccc(C2CC2Nc2nccc(-n3cnc4ccccc43)n2)cc1 (centres unmarked) [NUCC-0196255]			> 10000	920	
O[C@@H](c1ccccc1)[C@H](Nc1nccc(-n2cnc3ccccc32)n1)c1ccccc1 [NUCC-0196256]			7300	3800	
O[C@H](c1ccccc1)[C@@H](Nc1nccc(-n2cnc3ccccc32)n1)c1ccccc1 [NUCC-0196257]			1300	310	
O[C@@H](c1ccccc1)[C@H](Nc1ccnc(-n2cnc3ccccc32)n1)c1ccccc1 [NUCC-0196258]			> 10000	7000	
O[C@H](c1ccccc1)[C@@H](Nc1ccnc(-n2cnc3ccccc32)n1)c1ccccc1 [NUCC-0196259]			5600	320	
c1ccc2c(c1)ncn2-c1ccnc(NCCc2c[nH]c3ccccc23)n1 [NUCC-0196260]			500	90	
c1ccc2c(c1)ncn2-c1nccc(NCCc2c[nH]c3ccccc23)n1 [NUCC-0196261]			920	110	

SMILES	IC50 (Mnk1; read-out: Mnk1 IC50) [nM]	IC50 (Mnk2; [1]) [nM]	IC50 (Mnk1; [2]) [nM]	IC50 (Mnk2; [3]) [nM]	also measured
c1ccc2c(c1)ncn2-c1ccnc(NCCc2ccncc2)c1 [NUCC-0196262]			1300	1200	
Oc1cnc(NCCc2ccncc2)nc1-n1cnc2ccccc21 [NUCC-0196263]			> 10000	> 10000	
N#Cc1cnc(NCCc2ccncc2)nc1-n1cnc(-c2ccccc2)c1 [NUCC-0196264]			96	57	
NC(=O)c1cc(-n2cnc3ccccc32)nc(NCCc2ccncc2)n1 [NUCC-0196265]			1600	890	
Nc1cc(-n2cnc3ccccc32)nc(NCCc2ccncc2)n1 [NUCC-0196307]			870	170	
N#Cc1cnc(NCCc2ccncc2)nc1-n1ccnc1 [NUCC-0196308]			2100	6900	
COC(=O)c1cnc(NCCc2ccncc2)nc1-n1cnc2ccccc21 [NUCC-0196309]			> 10000	> 10000	
CCOC(=O)c1cnc(NCCc2ccncc2)nc1-n1cnc2ccccc21 [NUCC-0196310]			2100	5400	
Fc1ccc(CCNc2ncc(Cl)c(-n3cnc4ccccc43)n2)cc1 [NUCC-0200783]					IC50 (Mnk1; [4]): > 10000 nM; IC50 (Mnk2; [5]): < 1000 nM
FC(F)(F)c1ccc(CCNc2ncc(Cl)c(-n3cnc4ccccc43)n2)cc1 [NUCC-0200784]					IC50 (Mnk1; [4]): > 10000 nM; IC50 (Mnk2): 1000 to 10000 nM
N#Cc1ccc(CCNc2ncc(Cl)c(-n3cnc4ccccc43)n2)cc1 [NUCC-0200785]					IC50 (Mnk1; [4]): > 10000 nM; IC50 (Mnk2; [5]): < 1000 nM
N#Cc1cnc(Oc2ccc(Cl)cc2)nc1-n1cnc2ccccc21 [NUCC-0200787]					IC50 (Mnk1; [4]): < 1000 nM; IC50 (Mnk2; [5]): < 1000 nM
Brc1cnc(OCCc2ccncc2)nc1-n1cnc2ccccc21 [NUCC-0200789]					IC50 (Mnk1; [4]): < 1000 nM; IC50 (Mnk2; [5]): < 1000 nM
N#Cc1cnc(OCCN2CCOCC2)nc1-n1cnc2ccccc21 [NUCC-0200791]					IC50 (Mnk1; [4]): 1000 to 10000 nM; IC50 (Mnk2; [5]): < 1000 nM
N#Cc1cnc(Oc2cccnc2)nc1-n1cnc2ccccc21 [NUCC-0200794]					IC50 (Mnk1; [4]): 1000 to 10000 nM; IC50 (Mnk2; [5]): < 1000 nM
N#Cc1cnc(OC2CCCOC2)nc1-n1cnc2ccccc21 (centres unmarked) [NUCC-0200795]					IC50 (Mnk1; [4]): > 10000 nM; IC50 (Mnk2): 1000 to 10000 nM
Cc1cc2ncn(-c3nc(NCCc4ccncc4)ncc3Cl)c2cc1C [NUCC-0200797]					IC50 (Mnk1; [4]): > 10000 nM; IC50 (Mnk2; [5]): < 1000 nM
O=[N+](O)c1ccc2c(c1)ncn2-c1nc(NCCc2ccncc2)ncc1Cl [NUCC-0200798]					IC50 (Mnk1; [4]): > 10000 nM; IC50 (Mnk2): 1000 to 10000 nM
COC(=O)c1ccc2c(c1)ncn2-c1nc(NCCc2ccncc2)ncc1Cl [NUCC-0200799]					IC50 (Mnk1; [4]): 1000 to 10000 nM; IC50 (Mnk2; [5]): < 1000 nM
